Among the data in PubChem BioAssay (NCI) are GI50 and TGI values, retold here.

Test systems include RPMI-8226 leukemia; MOLT-4 leukemia; A549 NSCLC; SN12C renal; SK-MEL-2 melanoma; MDA-MB-231 breast; OVCAR-5 ovarian; OVCAR-4 ovarian; NCI-H23 lung; MALME-3M melanoma.
Common to all, as to assay: NCI-60 cell line screen, 48 h

Each structure is given as a SMILES string. “And” between values parts separate entries of the source, which are not always exact repeats. Equal entries are not always repeated.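 Following 48 hours of exposure in 96-well plates, responses at five concentrations were used to interpolate endpoints linearly. GI50 marks 50% less growth. The concentration for full growth arrest is given as TGI.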

Consider `COc1cc(Nc2nccc(Nc3ccc4c(C)[nH]nc4c3)n2)cc(OC)c1OC`, for which the GI50 is 5.21 µM in the assay on RPMI-8226 leukemia; 4.87 µM with MOLT-4 leukemia; 1.26 µM in the assay on A549 NSCLC; 2.12 µM in the assay with SN12C renal; 1.23 µM with SK-MEL-2 melanoma; 1.76 µM in the assay with MDA-MB-231 breast. In addition, the GI50 in the assay on OVCAR-5 ovarian is 1.8 µM; in the assay with OVCAR-4 ovarian it was 4.04 µM; with NCI-H23 lung it was 2.51 µM; in the assay on MALME-3M melanoma, 1.4 µM. Also, the TGI in the assay on RPMI-8226 leukemia is 13.2 µM; in the assay with MOLT-4 leukemia it was 19.2 µM; in the assay with A549 NSCLC it was 5.41 µM; with SN12C renal, 20.8 µM; in the assay on SK-MEL-2 melanoma, 5.09 µM; with MDA-MB-231 breast, 10.5 µM. The TGI was 20.8 µM in the assay with OVCAR-5 ovarian, greater than 20.7 µM in the assay with OVCAR-4 ovarian, 7.82 µM in the assay on NCI-H23 lung and 10.2 µM in the assay on MALME-3M melanoma.
As for `Nc1ccc(N(S(=O)(=O)c2ccccc2)S(=O)(=O)c2ccccc2)c(Cl)c1`, the TGI in the assay on RPMI-8226 leukemia is greater than 100 µM; with MOLT-4 leukemia, 60.5 µM; in the assay on A549 NSCLC, greater than 100 µM; in the assay with SN12C renal, greater than 100 µM; in the assay with SK-MEL-2 melanoma, greater than 100 µM; in the assay with MDA-MB-231 breast, greater than 100 µM. Also, the TGI with OVCAR-5 ovarian, with OVCAR-4 ovarian, in the assay with NCI-H23 lung and in the assay with MALME-3M melanoma was greater than 100 µM each time.
Consider `COc1ccc(CN(C)c2ccc(CO)c(Cl)c2)cc1`, for which the GI50 was 9.71 µM in the assay on RPMI-8226 leukemia; 25.8 µM with MOLT-4 leukemia; 5.75 µM in the assay on A549 NSCLC; 21.5 µM in the assay with SN12C renal; 8.37 µM in the assay with SK-MEL-2 melanoma; 22.7 µM with MDA-MB-231 breast. In addition, the GI50 in the assay on OVCAR-5 ovarian is 0.439 µM; in the assay on OVCAR-4 ovarian, 1.93 µM; with NCI-H23 lung, 12.9 µM; with MALME-3M melanoma, 21 µM. The TGI with RPMI-8226 leukemia is greater than 65.4 µM; in the assay with MOLT-4 leukemia, greater than 86.7 µM; in the assay with A549 NSCLC, 55.6 µM; in the assay on SN12C renal, greater than 100 µM; in the assay with SK-MEL-2 melanoma it was 38.7 µM; with MDA-MB-231 breast, greater than 88.8 µM. Also, the TGI with OVCAR-5 ovarian was 2.9 µM; with OVCAR-4 ovarian, greater than 45.9 µM; in the assay on NCI-H23 lung, greater than 100 µM; in the assay with MALME-3M melanoma it was 65.6 µM.
`CC[C@H](NC(=O)[C@H](C)NC)C(=O)N1C[C@@H](O)C[C@H]1Cc1c(-c2[nH]c3cc(F)ccc3c2C[C@@H]2C[C@H](O)CN2C(=O)[C@H](CC)NC(=O)[C@H](C)NC)[nH]c2cc(F)ccc12`: the GI50 in the assay on RPMI-8226 leukemia is 12.8 µM; in the assay with MOLT-4 leukemia, 74.4 µM; in the assay with A549 NSCLC, greater than 100 µM; with SN12C renal, greater than 100 µM; in the assay on SK-MEL-2 melanoma it was 6.01 µM; in the assay on MDA-MB-231 breast, 0.0349 µM. In addition, the GI50 in the assay on OVCAR-5 ovarian is greater than 100 µM; in the assay with OVCAR-4 ovarian, 0.0598 µM; in the assay on NCI-H23 lung, greater than 65.3 µM; in the assay with MALME-3M melanoma, greater than 100 µM. In addition, the TGI with RPMI-8226 leukemia was 98 µM; in the assay with MOLT-4 leukemia it was greater than 100 µM; in the assay on A549 NSCLC, greater than 100 µM; with SN12C renal it was greater than 100 µM; with SK-MEL-2 melanoma, greater than 100 µM; in the assay with MDA-MB-231 breast it was 2.18 µM. Further, the TGI in the assay with OVCAR-5 ovarian, with NCI-H23 lung and in the assay with MALME-3M melanoma was greater than 100 µM in each case.
`C=C1C(=O)C23CC1C[C@H](OC(C)=O)[C@H]2C1(C)C(OC(C)=O)C[C@H](O)C(C)(C)[C@H]1C(=O)[C@@H]3OC(C)=O` (some centres undefined): the TGI in the assay on RPMI-8226 leukemia came out at 4.81 µM; in the assay with MOLT-4 leukemia, 4.03 µM; in the assay with A549 NSCLC, 33.7 µM; in the assay with SN12C renal, 15.1 µM; in the assay on SK-MEL-2 melanoma, 25.9 µM; in the assay with MDA-MB-231 breast it was 11.7 µM. For the same compound, the TGI in the assay on OVCAR-5 ovarian is 22.5 µM; in the assay on OVCAR-4 ovarian it was 16.3 µM; in the assay on NCI-H23 lung, 15.2 µM; in the assay with MALME-3M melanoma, 5.15 µM.
`CC(=O)[O-].CC(=O)[O-].[Pt+2].c1cscn1.c1cscn1`: the GI50 was 57.7 µM in the assay with RPMI-8226 leukemia; 36.1 µM in the assay on MOLT-4 leukemia; 45.1 µM in the assay on A549 NSCLC; greater than 100 µM with SN12C renal; greater than 100 µM in the assay with SK-MEL-2 melanoma; greater than 100 µM in the assay with MDA-MB-231 breast. Besides, the GI50 with OVCAR-5 ovarian was greater than 100 µM; in the assay with OVCAR-4 ovarian, 74.3 µM; in the assay on NCI-H23 lung, greater than 100 µM; in the assay on MALME-3M melanoma, greater than 100 µM. Besides, the TGI in the assay with RPMI-8226 leukemia, with MOLT-4 leukemia, with A549 NSCLC, in the assay with SN12C renal, in the assay with SK-MEL-2 melanoma and in the assay on MDA-MB-231 breast was greater than 100 µM in each case. The TGI with OVCAR-5 ovarian, in the assay on OVCAR-4 ovarian, in the assay on NCI-H23 lung and with MALME-3M melanoma was greater than 100 µM in each case.
Regarding `O=c1c2c(nc3n1CCS3)[nH]c1ccccc12`, the GI50 in the assay on RPMI-8226 leukemia is greater than 100 µM; with MOLT-4 leukemia, greater than 100 µM; in the assay on A549 NSCLC it was 90.1 µM; in the assay on SN12C renal it was greater than 100 µM; in the assay on SK-MEL-2 melanoma, greater than 100 µM; with MDA-MB-231 breast, 33.4 µM. Further, the GI50 in the assay with OVCAR-5 ovarian, in the assay on OVCAR-4 ovarian, in the assay with NCI-H23 lung and with MALME-3M melanoma was greater than 100 µM each time. For the same compound, the TGI in the assay on RPMI-8226 leukemia, in the assay with MOLT-4 leukemia, in the assay with A549 NSCLC, with SN12C renal, in the assay on SK-MEL-2 melanoma and with MDA-MB-231 breast was greater than 100 µM each time. The TGI with OVCAR-5 ovarian, in the assay with OVCAR-4 ovarian, in the assay on NCI-H23 lung and with MALME-3M melanoma was greater than 100 µM in each case.
For the compound `Cn1c([N+](=O)[O-])cnc1/C=C1\Oc2ccccc2C1=O`, the GI50 with RPMI-8226 leukemia was 1.27 µM; in the assay with MOLT-4 leukemia, 0.159 µM; in the assay with A549 NSCLC it was 1.02 µM; in the assay with SN12C renal, 0.593 µM; in the assay with SK-MEL-2 melanoma it was 0.255 µM; in the assay on MDA-MB-231 breast it was 0.703 µM. Moreover, the GI50 with OVCAR-5 ovarian was 1.99 µM; in the assay on OVCAR-4 ovarian it was 2.05 µM; with NCI-H23 lung it was 0.37 µM; in the assay on MALME-3M melanoma, 0.626 µM. Also, the TGI worked out at 5.31 µM with RPMI-8226 leukemia; 0.758 µM in the assay with MOLT-4 leukemia; 5.12 µM in the assay on A549 NSCLC; 2.87 µM in the assay with SN12C renal; 0.663 µM in the assay with SK-MEL-2 melanoma; 4.39 µM with MDA-MB-231 breast. The TGI with OVCAR-5 ovarian is 6.63 µM; with OVCAR-4 ovarian it was 7.45 µM; in the assay on NCI-H23 lung, 2.61 µM; with MALME-3M melanoma, 3.2 µM.
Turning to `CC(C)=CCCC(C)c1ccc(C)c2c1OCN(CC1CCNCC1)C2` (centres undefined), the GI50 in the assay with RPMI-8226 leukemia is 7.25 µM; in the assay with MOLT-4 leukemia, 14.6 µM; with A549 NSCLC, 13 µM; in the assay with SN12C renal, 14.2 µM; in the assay with SK-MEL-2 melanoma, 18.2 µM; in the assay with MDA-MB-231 breast it was 12.5 µM. In addition, the GI50 is 14.3 µM in the assay with OVCAR-5 ovarian, 16 µM in the assay with OVCAR-4 ovarian, 15.7 µM in the assay with NCI-H23 lung and 17.7 µM in the assay on MALME-3M melanoma. Further, the TGI in the assay with RPMI-8226 leukemia came to 32.6 µM; in the assay with MOLT-4 leukemia, 43.3 µM; in the assay with A549 NSCLC it was 27.8 µM; with SN12C renal, 28.9 µM; in the assay with SK-MEL-2 melanoma, 35.5 µM; in the assay on MDA-MB-231 breast it was 28.3 µM. Also, the TGI was 28.8 µM with OVCAR-5 ovarian, 30.7 µM in the assay on OVCAR-4 ovarian, 33.6 µM in the assay with NCI-H23 lung and 35.3 µM in the assay with MALME-3M melanoma.
For `COC(=O)CCc1cc(OC)c2c(c1)C(C(=O)OC)C(c1ccc(OC)c(OC)c1)O2` (centres undefined), the GI50 in the assay with RPMI-8226 leukemia was > 100 µM and 22.3 µM; with MOLT-4 leukemia, 65.1 µM and 7.2 µM; with A549 NSCLC it was > 100 µM and 38 µM; in the assay on MDA-MB-231 breast, > 100 µM and 21.4 µM; in the assay with MALME-3M melanoma, > 100 µM and 20 µM. Moreover, the TGI with RPMI-8226 leukemia, with MOLT-4 leukemia, in the assay with A549 NSCLC, in the assay on SN12C renal, with SK-MEL-2 melanoma and in the assay on MDA-MB-231 breast was greater than 100 µM each time. The TGI in the assay with OVCAR-5 ovarian, in the assay with OVCAR-4 ovarian, with NCI-H23 lung and in the assay on MALME-3M melanoma was greater than 100 µM throughout.
As for `O=S(=O)(NC1=NCCN1C(=S)SN1CCn2c1nsc2=S)c1ccc(Br)cc1`, the GI50 in the assay with RPMI-8226 leukemia was 1.86 µM; in the assay on MOLT-4 leukemia, 27.1 µM; in the assay with A549 NSCLC, greater than 100 µM; with SN12C renal, 31.6 µM; with SK-MEL-2 melanoma it was 18.7 µM; in the assay with MDA-MB-231 breast it was 28.8 µM. Further, the GI50 was greater than 100 µM with OVCAR-5 ovarian, 49.2 µM in the assay with OVCAR-4 ovarian, 53.2 µM in the assay with NCI-H23 lung and 11.7 µM in the assay on MALME-3M melanoma. The TGI with RPMI-8226 leukemia is 37.2 µM; with MOLT-4 leukemia, greater than 100 µM; in the assay on A549 NSCLC, greater than 100 µM; with SN12C renal it was greater than 100 µM; in the assay with SK-MEL-2 melanoma it was 46.4 µM; in the assay on MDA-MB-231 breast it was greater than 100 µM. The TGI in the assay on OVCAR-5 ovarian was greater than 100 µM; in the assay on OVCAR-4 ovarian it was greater than 100 µM; in the assay with NCI-H23 lung it was greater than 100 µM; with MALME-3M melanoma, 56.3 µM.
